“And” between values parts separate entries of the source, which are not always exact repeats. Equal values may be shown once.
Experiments:
[1] = system: eIF4E-dTAG (FKBP12^F36V-tagged eIF4E); test: Immunoblot of eIF4E-dTAG degradation in H1299 eIF4E-dTAG clones; type: cell-based, human; details: 6 h at ≈ 2–5x the IC50
Protocol: Treatment of isolated clones with the heterobifunctional dTAG^V−1 molecule recruits E3 ligase VHL to degrade eIF4E-dTAG. […] Parental H1299 cells and the selected eIF4E-dTAG clones were treated with 0.5 and 1 µM dTAG^V−1 for 6, 8, or 16 h. Vinculin was used as a loading control (n = 3 biological replicates). c Real-time cell growth measurements of the selected eIF4E-dTAG clones treated with 0.5 or 1 µM dTAG^V−1. Cell confluency (%) was monitored every 4 h over 6 days using Incucyte Zoom. Significance was determined using a one-way ANOVA with Tukey multiple comparisons test comparing dTAG^V−1 treatment with the control in each cell line. […] Significant differences between control and treated samples were determined using MSstats. […]
After seeding overnight in 6 well plates (Corning, cat#353046), cells were treated with compounds for the indicated times and concentration, harvested and the cell pellet lysed on ice in cell lysis buffer (Cell Signaling, cat#9803), supplemented with 1x Halt^TM protease inhibitor cocktail (Fisher Scientific, cat#78429) and cOmplete^TM protease inhibitor cocktail (Sigma-Aldrich, cat#11836153001) for 1 hr. Protein was quantified using BCA protein kit (Fisher Scientific, cat#23225). […] Quantitative densitometry analysis of protein bands was performed using Image J v1.53 software.

H1299 clone C3-1 = test: Concentration response of cell survival, clone C3-1, Incucyte; type: cell-based, human; details: clone C3-1, 5 days continuous exposure
Protocol: Real time monitoring of cell growth was performed with the IncuCyte ZOOM live cell imaging system (Essen BioSciences, USA). Cells were seeded in 96 well plates (Corning, cat#353072) and treated on the next day. The resulting phase-contrast images were analysed using IncuCyte ZOOM 2018A software and results were expressed as percentage confluency of cells.
Supplementary Fig. 14 Treatment of the eIF4E-dTAG-degradation model with negative control dTAGV-1 compound. a Plot of concentration responsiveness versus cell survival for H1299 clone C3-1 following 120 hr exposure to different concentrations of dTAGv-1. Cell confluency (%) was calculated using Incucyte Zoom software and plotted as the mean ± SD from 3 biological replicates. b Immunoblot of […]
clone treated with 0.5 µM dTAGV-1 or the negative control dTAGV-1 compound for the indicated times. Vinculin was used as a loading control. The immunoblot shown is representative of 3 biological replicates. c Real-time cell confluency measurements of H1299 parental cells treated with 0.5 or 1 µM of dTAGV-1 or the negative control […]
2) treated with 0.5 or 1 µM of the negative control dTAGV-1 compound. Cells were monitored every 4 hr over a 6-day period. Cell confluency (%) was calculated using Incucyte Zoom software and shown as the mean ± SEM from 3 biological replicates.
(1 picture or pasted object on this page, not shown here)

In the case of `CC[C@H](C(=O)N1CCCC[C@H]1C(=O)O[C@H](CCc1ccc(OC)c(OC)c1)c1ccccc1OCC(=O)NCCCCCCC(=O)N[C@H](C(=O)N1C[C@H](O)C[C@H]1C(=O)N[C@@H](C)c1ccc(-c2scnc2C)cc1)C(C)(C)C)c1cc(OC)c(OC)c(OC)c1` [dTAG^V-1], the “loss of eIF4E-dTAG” value [1] is reported as “near complete loss of eIF4E-dTAG” and the IC50 (H1299 clone C3-1) is reported as 205 nM and 206 nM.

Source: publication PMC11868579 (Nature Communications, 2024)
